Experimental data: article PMC3062741 (Behavioural brain research, 2011)

Test system: Male Sprague-Dawley rats
Assay: Locomotor activity
Assay type: in vivo, rat
Conditions: for Locomotor Activity Day 1, mean distance traveled: 60-min session

Q: Which results are given for `COC(=O)C(c1ccccc1)C1CCCCN1` (stereo not drawn) [MPD, Methylphenidate]?
A: time course of locomotor activity compared to saline-treated rats (Day 1, EC rats, MPD 3 mg/kg): significantly greater during the 25–60-min intervals; time course of locomotor activity compared to saline-treated rats (Day 1, EC rats, MPD 10 mg/kg): significantly greater during the 20–60-min intervals; time course of locomotor activity compared to saline-treated rats (Day 1, IC rats, MPD 3 mg/kg): significantly greater during the 30-, 50- and 60-min intervals; time course of locomotor activity compared to saline-treated rats (Day 1, IC rats, MPD 10 mg/kg): significantly greater during the 15–60-min intervals; time course of locomotor activity compared to saline-treated rats (Day 1, SC rats, MPD 3 mg/kg): more active than saline-treated SC rats during the 30–60-min time intervals; time course of locomotor activity compared to saline-treated rats (Day 1, SC rats, MPD 10 mg/kg): more active than saline-treated SC rats during the 15–60-min time intervals; time course of locomotor activity compared to saline-treated rats (Day 10, EC rats, MPD 3 mg/kg): only IC rats treated with 3 mg/kg of MPD displayed greater activity; time course of locomotor activity compared to saline-treated rats (Day 10, EC rats, MPD 10 mg/kg): more active than the saline controls during each time interval; time course of locomotor activity compared to saline-treated rats (Day 10, IC rats, MPD 3 mg/kg): significantly greater activity in IC rats relative to saline controls beginning at the 30-min time interval; time course of locomotor activity compared to saline-treated rats (Day 10, IC rats, MPD 10 mg/kg): more active than the saline controls during each time interval except the 5-min interval in the IC group; time course of locomotor activity compared to saline-treated rats (Day 10, SC rats, MPD 3 mg/kg): more active than saline-treated SC rats during the 10–60-min time intervals; time course of locomotor activity compared to saline-treated rats (Day 10, SC rats, MPD 10 mg/kg): more active than saline-treated SC rats during the 10–60-min time intervals; total locomotor activity across Days 1–10 compared with Day 1 (EC rats, MPD 3 mg/kg once daily): greater locomotor activity on Day 2 than on Day 1; Locomotor Activity Day 10, mean distance traveled (EC rats, MPD 3 mg/kg s.c. once daily): 4438 cm; Locomotor Activity Day 1, mean distance traveled (EC rats, MPD 3 mg/kg s.c.): 9482 cm; total locomotor activity across Days 1–10 compared with Day 1 (EC rats, MPD 10 mg/kg once daily): greater locomotor activity on Days 4, 5 and 10 than on Day 1; Locomotor Activity Day 10, mean distance traveled (EC rats, MPD 10 mg/kg s.c. once daily): 29196 cm; Locomotor Activity Day 1, mean distance traveled (EC rats, MPD 10 mg/kg s.c.): 15665 cm; total locomotor activity across Days 1–10 compared with Day 1 (IC rats, MPD 3 mg/kg once daily): greater locomotor activity on Days 2–9 than on Day 1; Locomotor Activity Day 10, mean distance traveled (IC rats, MPD 3 mg/kg s.c. once daily): 13980 cm; Locomotor Activity Day 1, mean distance traveled (IC rats, MPD 3 mg/kg s.c.): 9775 cm; total locomotor activity across Days 1–10 compared with Day 1 (IC rats, MPD 10 mg/kg once daily): no significant main effect of Day; Locomotor Activity Day 10, mean distance traveled (IC rats, MPD 10 mg/kg s.c. once daily): 28531 cm; Locomotor Activity Day 1, mean distance traveled (IC rats, MPD 10 mg/kg s.c.): 20653 cm; total locomotor activity across Days 1–10 compared with Day 1 (SC rats, MPD 3 mg/kg once daily): activity on Days 2–10 was greater than activity on Day 1; Locomotor Activity Day 10, mean distance traveled (SC rats, MPD 3 mg/kg s.c. once daily): 23675 cm; Locomotor Activity Day 1, mean distance traveled (SC rats, MPD 3 mg/kg s.c.): 15020 cm; total locomotor activity across Days 1–10 compared with Day 1 (SC rats, MPD 10 mg/kg once daily): locomotor activity on Days 3, 5–7 and 10 was greater than that on Day 1; Locomotor Activity Day 10, mean distance traveled (SC rats, MPD 10 mg/kg s.c. once daily): 31954 cm; Locomotor Activity Day 1, mean distance traveled (SC rats, MPD 10 mg/kg s.c.): 22406 cm
